Results on five compounds are retold here after patent publication US20230106506A1, “NOVEL PqsR INVERSE AGONISTS” (Helmholtz-Zentrum Fur Infektionsforschung GmbH, priority 2020, published 2023).

Where two headings read alike, the source gives them in different places.

The test system of data set [1] is virulence factor elastase. Conditions: cited from earlier work.
For data set [2], the system named is production of signal molecules HHQ and PQS. Conditions: cited from earlier work.
The subject of data set [3] is P. aeruginosa pyocyanin production. Conditions: in cellulo, literature value; read-out: inhibition of virulence factor pyocyanin production: IC50; cited from earlier work.
The test system is the same in data set [4]. Nature of the data set: Pyocyanin assay. It is filed as cell-based, P. aeruginosa strain PA14. Particulars: Pseudomonas aeruginosa, PA14, 16 h, read-out: IC50-value towards pyocyanin production. The method in brief: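 PA14 washed overnight culture in PPGAS diluted to OD600 0.02, grown 16 h with compound (37 °C, 200 rpm, 75% RH). Pyocyanin extracted with chloroform, back-extracted into 0.2 M HCl. OD520 measured and normalised to OD600.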

The nature of data set [5]: Kinetic turbidimetric aqueous solubility. It is filed as physicochemical. Conditions: aqueous buffer, kinetic from dmso stock; PBS buffer, final DMSO 2%, absorbance 620 nm; read-out: Kinetic Turbidimetric Aqueous Solubility at room temperature for 5 min. As for the experimental part: Kinetic Turbidimetric Aqueous Solubility at room temperature for 5 min. […] Data was analyzed by fitting a four parameter sigmoidal function to the measured and normalized absorbances and AUC calculation providing access to Log S (decadic logarithm of the solubility).

Data set [6] in a line: Metabolic stability in mouse liver microsomes (MLM). It is filed as in vitro ADME. Conditions: 1 μM compound, 0.5 mg/mL MLM, 1 mM NADPH, 37° C., read-out: half-life (t1/2) towards MLM. The method, boiled down: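 Phase I stability: 1 μM compound incubated at 37° C with 0.5 mg/mL mouse liver microsomes and 1 mM NADPH, sampled at 0-30 min and quenched in acetonitrile. Remaining parent measured by HPLC-MS/MS to derive half-life.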

Data set [7] deals with T1, PqsR (Pseudomonas aeruginosa, UniProt Q9I4X0).
T1 construct: transfected with pEAL08-2 plasmid encoding pqsR under control of promoter tac; expressed in transfected cells; host or cells: Escherichia coli DH5alpha carrying pEAL08-2
Nature of the data set: PqsR reporter gene assay in E. coli (β-galactosidase). It is filed as cell-based. How it is done: Inhibition of pqsR-dependent gene expression of test compounds was determined in an E. coli based β-galactosidase reporter gene assay. Escherichia coli DH5α was transfected with pEAL08-2 plasmid encoding pqsR under control of promoter tac and β-galactosidase reporter gene lacZ under control of promoter pqsA. Antagonistic effects of compounds were evaluated in the presence of/in competition to 50 nM PQS. A positive control was used to ensure the reliability of individual assays. First, PQS was diluted in methanol and added to the wells of a glass coated 96-deep-well plate, and the solvent was evaporated. Then, compounds were added in 5 μL DMSO to final concentrations of 0.001-10 μM. Overnight cultures of E. coli DH5a×pEAL08-2 were diluted 1:100 in LB medium with ampicillin (50 μg/ml) and incubated at 37° C. with shaking until it reached an OD600 of 0.2. Finally, 995 μL of culture was added to each well and the β-galactosidase activity was determined by ortho-nitrophenyl-β-galactoside conversion in permeabilized cells after a 2.5 h incubation period (37° C., 180 rpm). OD600, OD420, and OD550 were measured using POLARstar Omega (BMG Labtech, Ortenberg, Germany), and the activity was expressed as ratio of the slope of β-galactosidase activity between basal control (no PQS) and solvent control, IC50 values of antagonists were determined by variation of the concentration of the test compounds.
Background: In a reporter assay the amount or activity of a reporter protein is the signal.

T1 sequence (Q9I4X0 whole entry): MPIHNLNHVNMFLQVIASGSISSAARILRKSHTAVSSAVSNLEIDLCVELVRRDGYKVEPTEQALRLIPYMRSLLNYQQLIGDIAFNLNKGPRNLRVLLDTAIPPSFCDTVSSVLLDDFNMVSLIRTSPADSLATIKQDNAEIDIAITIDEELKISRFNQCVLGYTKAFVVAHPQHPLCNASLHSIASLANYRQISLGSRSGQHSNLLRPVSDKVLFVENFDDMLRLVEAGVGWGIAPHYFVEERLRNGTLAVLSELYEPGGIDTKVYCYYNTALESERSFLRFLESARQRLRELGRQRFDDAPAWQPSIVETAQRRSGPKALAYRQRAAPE

As to `COC(=O)c1ccccc1N` [methyl anthranilate], the “inhibition of production of the virulence factor elastase, active concentration” value in data set [1] is recorded as “millimolar concentrations”. The “inhibition of PQS formation, active concentration” value in data set [2] is on record as “millimolar concentrations”.
As to `CCCCCCCc1[nH]c2ccc([N+](=O)[O-])cc2c(=O)c1C(N)=O` [2-heptyl-6-nitro-4-oxo-1,4-dihydroquinoline-3-carboxamide], in data set [2] (at 15 μM), the “reduction of HHQ production” value is given as 54% and the “reduction of PQS production” value was 37%. Also, the 50% inhibitory concentration (IC50) in data set [3] was 2000 nM.
Regarding `Nc1cccc(F)c1C(=O)O` [Compound 6FABA], the IC50 in data set [2] (QS inhibitor targeting the enzyme PqsA) was ~100000 nM.
For the compound `CC(C)Oc1ccc(-c2ncc(CNc3cc(-n4cncn4)nc(C(F)(F)F)c3)s2)cc1` [Compound 17, N-((2-(4-Isopropoxyphenyl)thiazol-5-yl)methyl)-2-(1H-1,2,4-triazol-1-yl)-6-(trifluoromethyl)pyridin-4-amine], the IC50 is ≤ 100 nM in data set [4] and 51 to 250 nM in data set [7]. Further, the solubility at 5 min in data set [5] is > 50 µM. In data set [6], the half-life at 1 µM lay within 1.02 to 1.67 h.
For `CC(C)Oc1ccc(-c2ncc(CNc3cc(-c4cnn(C)c4)nc(C(F)(F)F)c3)s2)cc1` [Compound 13, N-((2-(4-Isopropoxyphenyl)thiazol-5-yl)methyl)-2-(1-methyl-1H-pyrazol-4-yl)-6-(trifluoromethyl)pyridin-4-amine] the same measures were 201 to 500 nM, 51 to 250 nM, > 10 µM and 0.5 to 1 h.

As usually defined, the IC50 is the concentration needed to halve the response being measured. In general, solubility refers to how much of the substance goes into solution per volume.
